Our source for the MIC values is US4060611A, “3-Carbamylbenzyl-7-(phenylglycyl)amino cephalosporin derivatives” (Beecham Group Limited, priority 1975, dated 1977).

In brackets after ≈: the same amount, converted by molar mass.

Type in all cases: cell-based
One experiment concerns Klebsiella aerogenes A. Kind of experiment: MIC, growth inhibition on nutrient agar. Particulars: nutrient agar (medium not given for Examples 6, 7), read-out: minimum inhibitory concentration (MIC).
The test system of the next experiment is Salm. typhi. Put plainly: MIC, growth inhibition on nutrient agar. To be noted: Salmonella enterica, read-out: minimum inhibitory concentration (MIC).
The test system of a further experiment is Staph. aureus Oxford. Put plainly: MIC, growth inhibition on nutrient agar. Particulars: Staphylococcus aureus, nutrient agar (medium not given for Examples 6, 7), read-out: minimum inhibitory concentration (MIC).
In the next experiment the test system is E. coli JT1. Kind of experiment: MIC, growth inhibition on nutrient agar. To be noted: Escherichia coli, nutrient agar (medium not given for Examples 6, 7), read-out: minimum inhibitory concentration (MIC).
A further experiment concerns Shig. sonnei. Kind of experiment: MIC, growth inhibition on nutrient agar. To be noted: Shigella sonnei, read-out: minimum inhibitory concentration (MIC).
A further experiment deals with Enterobacter cloacae N1. Kind of experiment: MIC, growth inhibition on nutrient agar. To be noted: nutrient agar (medium not stated for Example 6), read-out: minimum inhibitory concentration (MIC).
The test system of another experiment is P. mirabilis C977. Kind of experiment: MIC, growth inhibition on nutrient agar. Particulars: Proteus mirabilis, nutrient agar (medium not given for Examples 6, 7), read-out: minimum inhibitory concentration (MIC).
The next experiment concerns P. rettgeri. Put plainly: MIC, growth inhibition on nutrient agar. Particulars: Providencia rettgeri, nutrient agar (medium not given for Examples 6, 7), read-out: minimum inhibitory concentration (MIC).
The test system of the next experiment is B. subtilis. Kind of experiment: MIC, growth inhibition on nutrient agar. Particulars: Bacillus subtilis, nutrient agar (medium not given for Examples 6, 7), read-out: minimum inhibitory concentration (MIC).
The next experiment relates to Staph. aureus Russell. Put plainly: MIC, growth inhibition on nutrient agar. Particulars: Staphylococcus aureus, nutrient agar (medium not given for Examples 6, 7), read-out: minimum inhibitory concentration (MIC).
In the next experiment the test system is β-haemolytic strep. CN10. Kind of experiment: MIC, growth inhibition on nutrient agar. To be noted: nutrient agar (medium not given for Examples 6, 7), read-out: minimum inhibitory concentration (MIC).
The subject of another experiment is P. mirabilis 889. Put plainly: MIC, growth inhibition on nutrient agar. To be noted: Proteus mirabilis, read-out: minimum inhibitory concentration (MIC).
For another experiment, the system named is P. mirabilis 899. Put plainly: MIC, growth inhibition on nutrient agar. Particulars: Proteus mirabilis, read-out: minimum inhibitory concentration (MIC).
The next experiment has as its system P. morganii. Put plainly: MIC, growth inhibition. To be noted: Morganella morganii, medium not stated, read-out: minimum inhibitory concentration (MIC).

On to `NC(=O)c1ccc(CC2=C(C(=O)O)N3C(=O)[C@@H](NC(=O)C(C(=O)Oc4ccccc4)c4ccccc4)[C@H]3SC2)cc1` (mixture of isomers) [Example 3, 3-(p-Carbamoylbenzyl)-7β-(DL-α-phenoxycarbonylphenylacetamido)ceph-3-em-4-carboxylic acid], for which the MIC in the experiment with Klebsiella aerogenes A was determined as 10 µg/mL; in the experiment on Salm. typhi, 10 µg/mL; with Staph. aureus Oxford, 1 µg/mL; in the experiment on E. coli JT1 it was 5 µg/mL; with Shig. sonnei, 5 µg/mL; with Enterobacter cloacae N1, 10 µg/mL. Besides, the MIC in the experiment on P. mirabilis C977 stood at 5 µg/mL; with P. rettgeri, 5 µg/mL; with B. subtilis, 10 µg/mL; in the experiment on Staph. aureus Russell, 10 µg/mL; with β-haemolytic strep. CN10 it was 1 µg/mL.

Turning to `NC(=O)c1ccc(CC2=C(C(=O)O)N3C(=O)[C@@H](NC(=O)C(C(=O)Oc4ccccc4)c4ccsc4)[C@H]3SC2)cc1` (mixture of isomers) [Example 6, 3-(p-Carbamoylbenzyl)-7β-(DL-α-phenoxycarbonyl-3^1-thienylacetamido)ceph-3-em-4-carboxylic acid], the MIC was found to be 2.5 µg/mL in the experiment on Klebsiella aerogenes A; 12.5 µg/mL in the experiment on Staph. aureus Oxford; 5 µg/mL with E. coli JT1; 12.5 µg/mL in the experiment on Enterobacter cloacae N1; 12.5 µg/mL in the experiment on P. mirabilis C977; 5 µg/mL in the experiment on P. rettgeri. The MIC in the experiment on B. subtilis, in the experiment on Staph. aureus Russell and in the experiment with β-haemolytic strep. CN10 was 25 µg/mL in each case.

Take `NC(=O)c1ccc(CC2=C(C(=O)O)N3C(=O)[C@@H](NC(=O)[C@H](N)c4ccccc4)[C@H]3SC2)cc1` [Example 1, 3-(p-Carbamoylbenzyl)-7β-(D-α-phenylglycyl)amino-ceph-3-em-4-carboxylic acid]: the MIC stood at 1 µg/mL (≈ 2.14 µM) with Klebsiella aerogenes A; 2.5 µg/mL (≈ 5.36 µM) in the experiment on Salm. typhi; 2.5 µg/mL (≈ 5.36 µM) in the experiment on P. mirabilis 889; 0.1 µg/mL (≈ 0.214 µM) in the experiment on Staph. aureus Oxford; 2.5 µg/mL (≈ 5.36 µM) in the experiment with E. coli JT1; 2.5 µg/mL (≈ 5.36 µM) with Shig. sonnei. Also, the MIC in the experiment on B. subtilis came to 0.1 µg/mL (≈ 0.214 µM); with Staph. aureus Russell, 2.5 µg/mL (≈ 5.36 µM); with β-haemolytic strep. CN10, 0.01 µg/mL (≈ 0.0214 µM).

With `NC(=O)c1ccc(CC2=C(C(=O)O)N3C(=O)[C@@H](NC(=O)[C@H](N)c4ccc(O)cc4)[C@H]3SC2)cc1` [Example 2, 3-(p-Carbamoylbenzyl)-7β-(D-α-p-hydroxyphenylglycyl)amino-ceph-3-em-4-carboxylic acid], the MIC in the experiment on Klebsiella aerogenes A is 1 µg/mL (≈ 2.07 µM); in the experiment with Salm. typhi, 0.5 µg/mL (≈ 1.04 µM); with Staph. aureus Oxford it was 0.1 µg/mL (≈ 0.207 µM); with E. coli JT1, 2.5 µg/mL (≈ 5.18 µM); in the experiment on Shig. sonnei, 2.5 µg/mL (≈ 5.18 µM); with P. mirabilis 899 it was 5 µg/mL (≈ 10.4 µM). For the same compound, the MIC turned out to be 2.5 µg/mL (≈ 5.18 µM) with P. mirabilis C977, 0.25 µg/mL (≈ 0.518 µM) in the experiment on B. subtilis, 1 µg/mL (≈ 2.07 µM) with Staph. aureus Russell and 0.02 µg/mL (≈ 0.0414 µM) with β-haemolytic strep. CN10.

`NC(=O)c1cccc(CC2=C(C(=O)O)N3C(=O)[C@@H](NC(=O)[C@H](N)c4ccccc4)[C@H]3SC2)c1` [Example 4, 3-(m-Carbamoylbenzyl)-7β-(D-α-phenylglycyl)amino-ceph-3-em-4-carboxylic acid]: the MIC in the experiment on Klebsiella aerogenes A is 5 µg/mL (≈ 10.7 µM); in the experiment with Salm. typhi, 10 µg/mL (≈ 21.4 µM); with P. mirabilis 889, 10 µg/mL (≈ 21.4 µM); with Staph. aureus Oxford it was 0.1 µg/mL (≈ 0.214 µM); with B. subtilis it was 0.1 µg/mL (≈ 0.214 µM); with Staph. aureus Russell, 2.5 µg/mL (≈ 5.36 µM). The MIC with β-haemolytic strep. CN10 stood at 0.05 µg/mL (≈ 0.107 µM).

With `NC(=O)c1cc(CC2=C(C(=O)O)N3C(=O)[C@@H](NC(=O)[C@H](N)c4ccccc4)[C@H]3SC2)cc(C(N)=O)c1` [Example 5, 3-(3,5-dicarbamoylbenzyl)-7β-(D-α-phenylglycyl)amino-ceph-3-em-4-carboxylic acid], the MIC in the experiment on Klebsiella aerogenes A is 5 µg/mL (≈ 9.81 µM); in the experiment with Salm. typhi, 10 µg/mL (≈ 19.6 µM); with Staph. aureus Oxford it was 0.5 µg/mL (≈ 0.981 µM); in the experiment with Shig. sonnei it was 10 µg/mL (≈ 19.6 µM); in the experiment on B. subtilis it was 2.5 µg/mL (≈ 4.91 µM); with Staph. aureus Russell, 5 µg/mL (≈ 9.81 µM). The MIC in the experiment with β-haemolytic strep. CN10 was found to be 0.5 µg/mL (≈ 0.981 µM).

For the compound `CN(C(=O)C=Cc1ccccc1)C(=O)N[C@@H](C(=O)N[C@@H]1C(=O)N2C(C(=O)O)=C(Cc3ccc(C(N)=O)cc3)CS[C@H]12)c1ccccc1` [Example 7, 3-(p-Carbamoylbenzyl)-7β-[D-α-(3-cinnamoyl-3-methyluriedo)phenylacetamido]ceph-3-em-4-carboxylic acid], the MIC came out at 5 µg/mL (≈ 7.65 µM) in the experiment on Klebsiella aerogenes A; 0.1 µg/mL (≈ 0.153 µM) with Staph. aureus Oxford; 5 µg/mL (≈ 7.65 µM) in the experiment with E. coli JT1; 5 µg/mL (≈ 7.65 µM) in the experiment with P. mirabilis C977; 12.5 µg/mL (≈ 19.1 µM) in the experiment with P. rettgeri; 5 µg/mL (≈ 7.65 µM) with B. subtilis. In addition, the MIC with P. morganii turned out to be 5 µg/mL (≈ 7.65 µM); in the experiment with Staph. aureus Russell, 12.5 µg/mL (≈ 19.1 µM); in the experiment on β-haemolytic strep. CN10 it was 0.05 µg/mL (≈ 0.0765 µM).
